In article PMC5519068 (PLoS ONE, 2017):
pIC50: −log10 of the molar value. Like-named read-outs stand apart in the source and are kept apart here.

How the values were obtained:
Flt3 = target: Flt3; parameters: method as in PMID 22520759; conditions: cited from earlier work
[1] = system: Flt3-ITD+ AML cell lines (MV4-11, MOLM-13, MOLM-14); assay: Apoptosis, Apo-ONE Caspase 3/7 assay; format: cell-based, human; conditions: 1.0 μM, 72 h
Method: (§1) Cells were seeded at a density of 100,000 cells per 1.0 ml in 48-well culture plates. Compounds were added to various concentrations while holding the DMSO concentration constant at 0.1%. Cell viability was assessed 72 hours later using the CellTiter-Blue Cell Viability assay (Promega) according to the manufacturer’s protocol and a SpectraMax Multi-Mode Microplate Reader (Molecular Devices). IC50 values were determined by non-linear regression analysis of concentration-response curves using the GraphPad PRISM software package (version 6.0). Apoptosis was determined using the same cell culture conditions and the Apo-ONE Homogeneous Caspase-3/7 Assay (Promega) and the manufacturer’s protocol.
Cell viability was measured in parallel using the CellTiter-Blue assay, and the resulting data are presented as the ratio of Caspase activity to cell viability as per the manufacturer’s protocol. All assays were performed in triplicate, and data are presented as the mean ratios ± SD. Asterisks indicate statistical significance between each treatment group vs. the corresponding DMSO control group with p < 0.05 (Student’s t-test).

[2] = system: bone marrow mononuclear cells from normal donors; assay: Apoptosis by flow cytometry for cell-surface phosphatidylserine in normal cells (non-specific cytotoxicity); format: cell-based, human; conditions: 3 μM; three normal donors
Method: Cells were then analyzed on a BD Accuri C6 Flow cytometer and the resulting data were evaluated using the BD CSampler software.
The presence of apoptotic cells was then assayed 48 and 72 h later by flow cytometry for cell-surface phosphatidylserine. […] To assess non-specific cytotoxicity, bone marrow mononuclear cells from three normal donors were cultured and treated with inhibitors under identical conditions, followed by flow cytometry for apoptotic cells.

[3] = system: Flt3-D835Y in TF-1/Flt3-D835Y cells; assay: Immunoprecipitation/immunoblot of Flt3-D835Y phosphotyrosine content in TF-1/Flt3-D835Y cells; format: cell-based, human; conditions: immunoblot, compound at in vitro IC90
Method: (§2) AML cells (2.5 x 10^6 in 5 mL) were cultured in the presence of kinase inhibitors or DMSO alone for 6 to 16 hours prior to lysis by sonication in RIPA buffer (50 mM Tris-HCl, pH 7.4, 150 mM NaCl, 1 mM EDTA, 1% Triton X-100, 0.1% SDS, 1% sodium deoxycholate) supplemented with 1 mM sodium orthovanadate, 1 mM sodium fluoride, 5 units/ml Benzonase (Novagen), and SigmaFAST EDTA-free protease inhibitor cocktail (Sigma). Flt3 and Fes were immunoprecipitated from 1 mg of cell lysate with 2 μg of antibody and 25 μL of protein G-Sepharose beads (Life Technologies) overnight at 4°C. Immunoprecipitates were washed three times by resuspension in 1.0 ml of RIPA buffer. Immunoprecipitated proteins were separated by SDS-PAGE, transferred to PVDF membranes and probed with the indicated antibodies followed by alkaline phosphatase-linked secondary antibodies. CDP-Star Western Blot Chemiluminescence Reagent (Perkin-Elmer) was used for detection.
(§3) Raw fluorescence data were corrected for background and then normalized to cultures grown in the presence of the DMSO carrier solvent. Each condition was performed in triplicate, and results are presented as the mean of the normalized values ± the SD. The resulting dose-response curves were fitted by non-linear regression analysis for estimation of the IC50 values (see Table 2). […] Fes and Flt3 kinase proteins were then immunoprecipitated from cell lysates followed by immunoblotting with antibodies to phosphotyrosine (pTyr), the Fes activation loop phosphotyrosine (pY713), as well as the Flt3 and Fes proteins.

[4] = system: Flt3-ITD+ AML cell lines (MV4-11, MOLM-13, MOLM-14); assay: Growth inhibition across Flt3-ITD+ AML cell lines; format: cell-based; conditions: Homo sapiens, 72 h
Method: as §1
Raw fluorescence data were corrected for background and then normalized to cultures grown in the presence of the DMSO carrier solvent. Each assay condition was performed in triplicate, and results are presented as the mean of the normalized values ± the SD.

[5] = system: Flt3-ITD in TF-1/Flt3-ITD cells; assay: Immunoprecipitation/immunoblot of Flt3 phosphotyrosine content in TF-1/Flt3-ITD cells; format: cell-based, human; conditions: compound at in vitro IC90 for Fes, 16 h (tandutinib: IC90 for Flt3-ITD, 6 h)
Method: as §2, §3

TF-1/Flt3-D835Y cells = assay: Inhibitor sensitivity of TF-1 cell populations, CellTiter-Blue, 72 h; format: cell-based, human
Method: as §1
(§4) For each retroviral transduction, TF-1 cells (1 x 10^6) were suspended in 5 mL of undiluted viral supernatant and plated in one well of a 6-well tissue culture dish. Polybrene (Sigma) was added to a final concentration of 4 μg/mL and the TF-1 cells were centrifuged at 1000 x g for 3 hours to enhance retroviral mediated gene transfer. After centrifugation, the virus was removed and replaced with fresh medium.
as §3

TF-1/Flt3-ITD cells = assay: as above; format: cell-based, human
Method: as §1, §4, §3

[6] = system: TF-1 cells transduced with an empty retroviral vector (Control); assay: as above; format: cell-based, human; conditions: Homo sapiens, TF-1; empty vector control, 72 h
Method: as §1, §4, §3

Structure (SMILES)	KINOMEscan binding to Flt3 (Flt3)	Apoptosis (Caspase 3/7 activity) in Flt3-ITD+ AML cell lines [1]	Increase in apoptosis in normal bone marrow mononuclear cells [2] [%]	Inhibition of Flt3-D835Y phosphotyrosine content in TF-1/Flt3-D835Y cells [3]	pIC50 ([4]; MV4-11, MOLM-13, MOLM-14, read-out: IC50 values for growth inhibition, range over the Flt3-ITD+ AML cell lines)	Inhibition of Flt3-ITD phosphotyrosine content in TF-1/Flt3-ITD cells [5]	Activity on TF-1/Flt3-D835Y cell growth (TF-1/Flt3-D835Y cells; 72 h)	IC50 (TF-1/Flt3-D835Y cells; Homo sapiens, TF-1, 72 h; read-out: Inhibitor sensitivity of TF-1 Cell Populations (IC50, nM) Flt3-D835Y) [nM]	IC50 (TF-1/Flt3-ITD cells; Homo sapiens, TF-1, 72 h; read-out: Inhibitor sensitivity of TF-1 Cell Populations (IC50, nM) Flt3-ITD) [nM]	IC50 [6] [nM]	pIC50 ([4]; read-out: IC50 values for growth inhibition in all three Flt3-ITD+ AML cell lines)	IC50 (TF-1/Flt3-D835Y cells; Homo sapiens, TF-1, 72 h, read-out: Inhibitor sensitivity of TF-1 Cell Populations (IC50, nM) Flt3-D835Y) [nM]	IC50 (TF-1/Flt3-ITD cells; Homo sapiens, TF-1, 72 h, read-out: Inhibitor sensitivity of TF-1 Cell Populations (IC50, nM) Flt3-ITD) [nM]	Potency in TF-1/Flt3-ITD cells compared to the Flt3-ITD+ AML cells (TF-1/Flt3-ITD cells; growth inhibition)
CCN1CCN(Cc2ccc(NC(=O)c3ccc(C)c(Oc4ccnc5[nH]ccc45)c3)cc2C(F)(F)F)CC1 [HG7-92-01]	bind to a wider range of kinases (including Flt3)	equal to or greater than that observed with tandutinib	≤ 10	without effect	6.78 to 7.72	inhibited both Flt3-ITD and Fes	devoid of activity	> 1000	29	> 1000	–	–	–	–
COc1cc(N2CCC(O)CC2)ccc1Nc1nc(Nc2ccccc2S(=O)(=O)C(C)C)c2cn[nH]c2n1 [WZ4-49-1]	–	less pronounced	–	complete inhibition	–	only inhibited the activity of Fes	–	–	–	> 3000	~6.00	597	466	about two-fold higher
